In patent US12336981B2, “Compounds and compositions for the inhibition of NAMPT” (Valo Health, Inc., priority 2010, dated 2025):
Where two headings read alike, the source gives them in different places.

Assays:
NAMPT = target: T1, NAMPT (Homo sapiens, UniProt P43490); test: Biochemical inhibition assay: NAMPT enzymatic reaction, NMN quantified by mass spectrometry; conditions: read-out: Biochem IC50
T1 construct: His tag; host or cells: E. coli
Method in brief: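 Inhibition of E. coli-expressed His-tagged human NAMPT, measured as NMN formation by mass spectrometry after a 30 min room-temperature reaction containing 1 μM NAM, 100 μM PRPP and 2.5 mM ATP.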

A2780 cells = test: In-vitro cell proliferation assay (SRB), A2780 cells; assay type: cell-based; conditions: Homo sapiens, A2780, 72 h, A2780 cells, 72 hours, read-out: A2780 IC50
Method in brief: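 Proliferation is assessed by sulforhodamine B staining following a 72-hour incubation with compound dilutions containing 0.1% DMSO.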

T1 sequence (P43490 whole entry): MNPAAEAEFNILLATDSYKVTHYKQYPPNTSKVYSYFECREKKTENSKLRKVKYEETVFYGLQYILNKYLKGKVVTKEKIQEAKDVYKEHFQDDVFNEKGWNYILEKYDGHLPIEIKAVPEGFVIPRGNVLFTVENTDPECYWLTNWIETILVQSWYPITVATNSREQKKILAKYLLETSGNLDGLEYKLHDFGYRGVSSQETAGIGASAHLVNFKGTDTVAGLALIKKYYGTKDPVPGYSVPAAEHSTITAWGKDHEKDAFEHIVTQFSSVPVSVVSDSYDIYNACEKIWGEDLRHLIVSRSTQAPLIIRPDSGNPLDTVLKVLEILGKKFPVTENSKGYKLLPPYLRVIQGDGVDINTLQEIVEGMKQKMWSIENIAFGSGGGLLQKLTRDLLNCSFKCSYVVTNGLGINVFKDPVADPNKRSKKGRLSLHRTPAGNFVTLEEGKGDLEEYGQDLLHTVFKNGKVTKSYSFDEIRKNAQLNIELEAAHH

With `Nc1ccc(C(=O)NCc2ccc(S(=O)(=O)c3cc(F)cc(F)c3)cc2)cn1` [6-amino-N-({4-[(3,5-difluorobenzene)sulfonyl]phenyl}methyl)pyridine-3-carboxamide] the IC50 (NAMPT; NAMPT enzymatic reaction) was 14.2 nM and the IC50 (A2780 cells; SRB) was 275 nM.
`COc1ccc(F)cc1NS(=O)(=O)c1ccc(CN/C(=N\C#N)Nc2ccncc2)cc1` [(E)-2-cyano-3-({4-[(5-fluoro-2-methoxyphenyl)sulfamoyl]phenyl}methyl)-1-(pyridin-4-yl)guanidine] gave an IC50 (NAMPT; NAMPT enzymatic reaction) of 1.1 nM and an IC50 (A2780 cells; SRB) of 3 nM.
`O=C(NCc1ccc2ncsc2c1)c1ccc(S(=O)(=O)c2cccc(Cl)c2)cc1` [N-(1,3-benzothiazol-6-ylmethyl)-4-[(3-chlorobenzene)sulfonyl]benzamide] gave an IC50 (NAMPT; NAMPT enzymatic assay) of 10 nM and an IC50 (A2780 cells; SRB) of over 10000 nM.
Molecule `O=C(NCc1ccc(S(=O)(=O)c2ccccc2)cc1)c1ccc2scnc2c1` [N-(4-(phenylsulfonyl)benzyl)benzo[d]thiazole-5-carboxamide] has an IC50 (NAMPT; NAMPT enzymatic reaction) of 47 nM and an IC50 (A2780 cells; SRB assay) of 3870 nM.
Work on `O=C(NCc1ccc(S(=O)(=O)c2cnn(-c3cccc(Cl)c3)c2)cc1)c1cnc2[nH]ncc2c1` [N-({4-[1-(3-chlorophenyl)-1H-pyrazole-4-sulfonyl]phenyl}methyl)-1H-pyrazolo[3,4-b]pyridine-5-carboxamide] yielded an IC50 (NAMPT; NAMPT enzymatic assay) of 28.2 nM and an IC50 (A2780 cells; SRB) of 55.6 nM.
Molecule `O=C(NCc1ccc(S(=O)(=O)c2cnn(-c3cccc(Cl)c3)c2)cc1)c1cc2cnccc2[nH]1` [N-({4-[1-(3-chlorophenyl)-1H-pyrazole-4-sulfonyl]phenyl}methyl)-1H-pyrrolo[3,2-c]pyridine-2-carboxamide] has an IC50 (NAMPT; NAMPT enzymatic assay) of 16.9 nM and an IC50 (A2780 cells; SRB) of 13.1 nM.
`O=C(NCc1ccc(S(=O)(=O)c2cnn(-c3cccc(Cl)c3)c2)cc1)c1cc2ccncc2o1` [N-({4-[1-(3-chlorophenyl)-1H-pyrazole-4-sulfonyl]phenyl}methyl)furo[2,3-c]pyridine-2-carboxamide] gave an IC50 (NAMPT; NAMPT enzymatic assay) of 11.6 nM and an IC50 (A2780 cells; SRB) of 14 nM.
Work on `O=C(NCc1ccc(S(=O)(=O)c2cnn(-c3cccc(Cl)c3)c2)cc1)c1ccc2nccn2c1` [N-({4-[1-(3-chlorophenyl)-1H-pyrazole-4-sulfonyl]phenyl}methyl)imidazo[1,2-a]pyridine-6-carboxamide] yielded an IC50 (NAMPT; NAMPT enzymatic assay) of 14 nM and an IC50 (A2780 cells; SRB) of 6.4 nM.
`O=C(NCc1ccc(S(=O)(=O)c2cnn(-c3cccc(Cl)c3)c2)cc1)c1cnc2nccn2c1` [N-({4-[1-(3-chlorophenyl)-1H-pyrazole-4-sulfonyl]phenyl}methyl)imidazo[1,2-a]pyrimidine-6-carboxamide] gave an IC50 (NAMPT; NAMPT enzymatic assay) of 2.2 nM and an IC50 (A2780 cells; SRB) of 11.5 nM.
In the case of `O=C(NCc1ccc(S(=O)(=O)c2cnn(-c3cccc(Cl)c3)c2)cc1)c1cc2ccncc2s1` [N-({4-[1-(3-chlorophenyl)-1H-pyrazole-4-sulfonyl]phenyl}methyl)thieno[2,3-c]pyridine-2-carboxamide], the IC50 (NAMPT; NAMPT enzymatic assay) is reported as 4.1 nM and the IC50 (A2780 cells; SRB) is reported as 13.9 nM.
In the case of `O=C(NCc1ccc(S(=O)(=O)c2cnn(-c3ccc(F)cc3)c2)cc1)c1cc2cnccc2[nH]1` [N-({4-[1-(4-fluorophenyl)-1H-pyrazole-4-sulfonyl]phenyl}methyl)-1H-pyrrolo[3,2-c]pyridine-2-carboxamide], the IC50 (NAMPT; NAMPT enzymatic assay) is reported as 18.4 nM and the IC50 (A2780 cells; SRB) is reported as 6.6 nM.
`O=C(NCc1ccc(S(=O)(=O)c2cnn(-c3ccc(F)cc3)c2)cc1)c1cc2ccncc2o1` [N-({4-[1-(4-fluorophenyl)-1H-pyrazole-4-sulfonyl]phenyl}methyl)furo[2,3-c]pyridine-2-carboxamide] was tested, and the IC50 (NAMPT; NAMPT enzymatic assay) was 6.9 nM and the IC50 (A2780 cells; SRB) was 7.4 nM.
`O=C(NCc1ccc(S(=O)(=O)c2cnn(-c3ccc(F)cc3)c2)cc1)c1cc2ccncc2s1` [N-({4-[1-(4-fluorophenyl)-1H-pyrazole-4-sulfonyl]phenyl}methyl)thieno[2,3-c]pyridine-2-carboxamide] gave an IC50 (NAMPT; NAMPT enzymatic assay) of 4.5 nM and an IC50 (A2780 cells; SRB) of 6.2 nM.
In the case of `CC(C)n1cc(S(=O)(=O)c2ccc(CNC(=O)c3ccc4nccn4c3)cc2)cn1` [N-({4-[1-(propan-2-yl)-1H-pyrazole-4-sulfonyl]phenyl}methyl)imidazo[1,2-a]pyridine-6-carboxamide], the IC50 (NAMPT; NAMPT enzymatic assay) is reported as 8 nM and the IC50 (A2780 cells; SRB) is reported as 2.7 nM.
In the case of `Cn1cc(S(=O)(=O)c2ccc(CNC(=O)c3ccc4nccn4c3)cc2)c(C(F)(F)F)n1` [N-({4-[1-methyl-3-(trifluoromethyl)-1H-pyrazole-4-sulfonyl]phenyl}methyl)imidazo[1,2-a]pyridine-6-carboxamide], the IC50 (NAMPT; NAMPT enzymatic assay) is reported as 29.9 nM and the IC50 (A2780 cells; SRB) is reported as 27.8 nM.
`Cn1ncc(S(=O)(=O)c2ccc(CNC(=O)c3cnc4[nH]ncc4c3)cc2)c1C(F)(F)F` [N-({4-[1-methyl-5-(trifluoromethyl)-1H-pyrazole-4-sulfonyl]phenyl}methyl)-1H-pyrazolo[3,4-b]pyridine-5-carboxamide] gave an IC50 (NAMPT; NAMPT enzymatic assay) of 53.4 nM and an IC50 (A2780 cells; SRB) of 43.4 nM.
With `Cn1ncc(S(=O)(=O)c2ccc(CNC(=O)c3cnc4nccn4c3)cc2)c1C(F)(F)F` [N-({4-[1-methyl-5-(trifluoromethyl)-1H-pyrazole-4-sulfonyl]phenyl}methyl)imidazo[1,2-a]pyrimidine-6-carboxamide] the IC50 (NAMPT; NAMPT enzymatic assay) was 4 nM and the IC50 (A2780 cells; SRB) was 67.9 nM.
In the case of `O=C(NCc1ccc(S(=O)(=O)c2csc(-c3cccc(F)c3)n2)cc1)c1cnc2[nH]ncc2c1` [N-({4-[2-(3-fluorophenyl)-1,3-thiazole-4-sulfonyl]phenyl}methyl)-1H-pyrazolo[3,4-b]pyridine-5-carboxamide], the IC50 (NAMPT; NAMPT enzymatic assay) is reported as 27.1 nM and the IC50 (A2780 cells; SRB) is reported as 60.9 nM.
Work on `O=C(NCc1ccc(S(=O)(=O)c2csc(-c3cccc(F)c3)n2)cc1)c1cc2cnccc2[nH]1` [N-({4-[2-(3-fluorophenyl)-1,3-thiazole-4-sulfonyl]phenyl}methyl)-1H-pyrrolo[3,2-c]pyridine-2-carboxamide] yielded an IC50 (NAMPT; NAMPT enzymatic assay) of 19.2 nM and an IC50 (A2780 cells; SRB) of 23.2 nM.
Molecule `O=C(NCc1ccc(S(=O)(=O)c2csc(-c3cccc(F)c3)n2)cc1)c1cc2ccncc2o1` [N-({4-[2-(3-fluorophenyl)-1,3-thiazole-4-sulfonyl]phenyl}methyl)furo[2,3-c]pyridine-2-carboxamide] has an IC50 (NAMPT; NAMPT enzymatic assay) of 11.9 nM and an IC50 (A2780 cells; SRB) of 50.4 nM.
Molecule `O=C(NCc1ccc(S(=O)(=O)c2csc(-c3cccc(F)c3)n2)cc1)c1ccc2nccn2c1` [N-({4-[2-(3-fluorophenyl)-1,3-thiazole-4-sulfonyl]phenyl}methyl)imidazo[1,2-a]pyridine-6-carboxamide] has an IC50 (NAMPT; NAMPT enzymatic assay) of 22.9 nM and an IC50 (A2780 cells; SRB) of 12.8 nM.
`O=C(NCc1ccc(S(=O)(=O)c2csc(-c3cccc(F)c3)n2)cc1)c1cnc2nccn2c1` [N-({4-[2-(3-fluorophenyl)-1,3-thiazole-4-sulfonyl]phenyl}methyl)imidazo[1,2-a]pyrimidine-6-carboxamide] was tested, and the IC50 (NAMPT; NAMPT enzymatic assay) was 1 nM and the IC50 (A2780 cells; SRB) was 6.9 nM.
Work on `O=C(NCc1ccc(S(=O)(=O)c2csc(-c3cccc(F)c3)n2)cc1)c1cc2ccncc2s1` [N-({4-[2-(3-fluorophenyl)-1,3-thiazole-4-sulfonyl]phenyl}methyl)thieno[2,3-c]pyridine-2-carboxamide] yielded an IC50 (NAMPT; NAMPT enzymatic assay) of 6.6 nM and an IC50 (A2780 cells; SRB) of 24.4 nM.
For `O=C(NCc1ccc(CCS(=O)(=O)c2ccccc2)cc1)c1cc2cnccc2[nH]1` [N-({4-[2-(benzenesulfonyl)ethyl]phenyl}methyl)-1H-pyrrolo[3,2-c]pyridine-2-carboxamide], the IC50 (NAMPT; NAMPT enzymatic assay) was 23 nM and the IC50 (A2780 cells; SRB) was 166 nM.
`CN(C)c1ncc(S(=O)(=O)c2ccc(CNC(=O)c3cnc4[nH]ncc4c3)cc2)cn1` [N-({4-[2-(dimethylamino)pyrimidine-5-sulfonyl]phenyl}methyl)-1H-pyrazolo[3,4-b]pyridine-5-carboxamide] was tested, and the IC50 (NAMPT; NAMPT enzymatic assay) was 7.9 nM and the IC50 (A2780 cells; SRB) was 5.9 nM.
With `CN(C)c1ncc(S(=O)(=O)c2ccc(CNC(=O)c3cc4cnccc4[nH]3)cc2)cn1` [N-({4-[2-(dimethylamino)pyrimidine-5-sulfonyl]phenyl}methyl)-1H-pyrrolo[3,2-c]pyridine-2-carboxamide] the IC50 (NAMPT; NAMPT enzymatic assay) was 19 nM and the IC50 (A2780 cells; SRB) was 3.5 nM.
`CN(C)c1ncc(S(=O)(=O)c2ccc(CNC(=O)c3cc4ccncc4o3)cc2)cn1` [N-({4-[2-(dimethylamino)pyrimidine-5-sulfonyl]phenyl}methyl)furo[2,3-c]pyridine-2-carboxamide] gave an IC50 (NAMPT; NAMPT enzymatic assay) of 25.8 nM and an IC50 (A2780 cells; SRB) of 12 nM.
For `CN(C)c1ncc(S(=O)(=O)c2ccc(CNC(=O)c3cc4ccncc4s3)cc2)cn1` [N-({4-[2-(dimethylamino)pyrimidine-5-sulfonyl]phenyl}methyl)thieno[2,3-c]pyridine-2-carboxamide], the IC50 (NAMPT; NAMPT enzymatic assay) was 8 nM and the IC50 (A2780 cells; SRB) was 1.7 nM.
`O=C(NCc1ccc(S(=O)(=O)c2cccnc2N2CCOCC2)cc1)c1cc2ccncc2o1` [N-({4-[2-(morpholin-4-yl)pyridine-3-sulfonyl]phenyl}methyl)furo[2,3-c]pyridine-2-carboxamide] gave an IC50 (NAMPT; NAMPT enzymatic assay) of 32.5 nM and an IC50 (A2780 cells; SRB) of 60.5 nM.
`O=C(NCc1ccc(S(=O)(=O)c2cccnc2N2CCOCC2)cc1)c1cnc2nccn2c1` [N-({4-[2-(morpholin-4-yl)pyridine-3-sulfonyl]phenyl}methyl)imidazo[1,2-a]pyrimidine-6-carboxamide] was tested, and the IC50 (NAMPT; NAMPT enzymatic assay) was 31.2 nM and the IC50 (A2780 cells; SRB) was 100 to 1000 nM.
`O=C(NCc1ccc(S(=O)(=O)c2cnc(N3CCCC3)s2)cc1)c1cnc2[nH]ncc2c1` [N-({4-[2-(pyrrolidin-1-yl)-1,3-thiazole-5-sulfonyl]phenyl}methyl)-1H-pyrazolo[3,4-b]pyridine-5-carboxamide] showed an IC50 (NAMPT; NAMPT enzymatic assay) of 2.8 nM and an IC50 (A2780 cells; SRB) of 0.9 nM.
For `O=C(NCc1ccc(S(=O)(=O)c2cnc(N3CCCC3)s2)cc1)c1cc2cnccc2[nH]1` [N-({4-[2-(pyrrolidin-1-yl)-1,3-thiazole-5-sulfonyl]phenyl}methyl)-1H-pyrrolo[3,2-c]pyridine-2-carboxamide], the IC50 (NAMPT; NAMPT enzymatic assay) was 6 nM and the IC50 (A2780 cells; SRB) was 0.5 nM.
`O=C(NCc1ccc(S(=O)(=O)c2cnc(N3CCCC3)s2)cc1)c1ccc2nccn2c1` [N-({4-[2-(pyrrolidin-1-yl)-1,3-thiazole-5-sulfonyl]phenyl}methyl)imidazo[1,2-a]pyridine-6-carboxamide] showed an IC50 (NAMPT; NAMPT enzymatic assay) of 2.4 nM and an IC50 (A2780 cells; SRB) of 0.4 nM.
